In patent publication US20040220204A1, “Pharmaceutical composition comprising a tricyclic compound for the prevention or treatment of skin diseases” (priority 2001, published 2004):

Assay: stabilization of FK506 dissolved in lower alkanediols
Type: physicochemical
Details: such as ethylene glycol, propylene glycol, butylene glycol
Protocol: It was also confirmed that carboxybinyl polymer could make FK506 stable, when FK506 was dissolved in lower alkanediols, such as ethylene glycol, propylene glycol, butylene glycol, etc. And, it was further confirmed that a combination of hydroxypropyl cellulose and ascorbyl palmitate could also make FK506 stable, when FK506 was dissolved in lower alkanediols, such as ethylene glycol, propylene glycol, butylene glycol, etc.

stability of FK506 with carboxybinyl polymer (carboxybinyl polymer added): stable | stability of FK506 with a combination of hydroxypropyl cellulose and ascorbyl palmitate (hydroxypropyl cellulose and ascorbyl palmitate added): stable
Compound: C=CC[C@@H]1/C=C(\C)C[C@H](C)C[C@H](OC)[C@H]2O[C@@](O)(C(=O)C(=O)N3CCCC[C@H]3C(=O)O[C@H](/C(C)=C/[C@@H]3CC[C@@H](O)[C@H](OC)C3)[C@H](C)[C@@H](O)CC1=O)[C@H](C)C[C@@H]2OC [FK506, 17-allyl-1,14-dihydroxy-12-[2-(4-hydroxy-3-methoxycyclohexyl)-1-methylvinyl]-23,25-dimethoxy-13,19,21,27-tetramethyl-11,28-dioxa-4-azatricyclo[22.3.1.0^4,9]octacos-18-ene-2,3,10,16-tetraone]
